The results in this text go back to patent publication US20090324509A1, “INSECTICIDAL COMPOSITION” (LIVIE BIOPESTICIDES LIMITED, priority 2006, published 2009).

What all share (assay type): in vivo
Data set [1] has as its system Deer Tick (Ixodes ricinus). Nature of the data set: Potter tower spray bioassay on adult arthropods, mortality. The note with it: 1.0 ml/pot, adults, room temperature; % of negative control. The procedure: (§1) The IGR's Methoprene and Diflubenzuron were sources as WHO standard preparations at 20 mg/l technical from WHO, Geneva, and used as positive controls or mixtures (50:50) with 5.0% p-cymene.
(§2) Laboratory colonies of the cat flea (Ctenocephalides felis) and the Deer Tick (Ixodes ricinus) were used in bioassays undertaken at room temperature.
(§3) Bioassays consisted of plastic pots with a netting cover holding batches of 10 adult insects of each species being placed under a potter tower which then sprayed a fine particulate aerosol of even rate. Application rates were always 1.0 ml/pot which is sufficient to wet the inner surface without leaving free liquid residues. After exposure to the treatment or a 5% ethanol control, arthropods were then transferred to a clean plastic holding pot and held at room temperature for 3 days with mortality scored after 24 & 72 hours. Mortality was calculated as % of negative control.

In data set [2] the test system is cat flea (Ctenocephalides felis). The description is as above. The note with it: 1.0 ml/pot, adults, room temperature; % of negative control. The method, then:
as §1, §2, §3

In data set [3] the test system is a range of pests including Musca domestica, Periplaneta Americana, Blatella germanica and others. Nature of the data set: Tests of insecticidal activity of p-cymene against a range of pests. The note with it: 15 listed pest species.

Molecules are shown by their SMILES.

As to `Cc1ccc(C(C)C)cc1` [p-cymene], in data set [1], the 24 hours mortality stood at 28% and the 72 hours mortality amounted to 55%. In data set [2], this molecule gave a 24 hours mortality of 76% and a 72 hours mortality of 88%. In addition, the insecticidal activity result in data set [3] is “broad spectrum insecticidal activity”.
